Data published in patent US20250325563A1, “METHODS FOR TREATING METABOLIC SYNDROME” (priority 2023, published 2025).

Legend:
HFD-fed mice [1] = test: Visceral and subcutaneous fat volumes by MRI (Example 3); type: in vivo, C57BL/6J mice; conditions: 15 μg/kg i.p. twice a week for 16 weeks, n=5
Protocol: (§1) Mice were group-housed (4-5 mice per cage) on a proper temperature control of 24-26° C. with a 12 h light/dark cycle with food and water available ad libidum.
Abdominal area of animals was scanned for assessing visceral and subcutaneous fat loading by using magnetic resonance imaging system (MRI, Bruker BioSpin Group, Bruker Corporations, Germany) before experiment and then once a month during the experiment. The study procedure was conducted as follows: mice (n=5 per group) were anesthetized using isoflurane (1.5-2.5% in 1.5 l/min medical oxygen) and placed on a heated animal bed throughout the MRI procedure. Scans were performed using a 9.4T Bruker BioSpec 94/21 USR system connected to a 1H circular polarized transceiver coil and running Para Vision 6.0.1® software (Bruker BioSpin Group, Bruker Corporation, Germany). Respiration was monitored using a respiration pillow (SA Instruments Inc., Stony Brook, USA) and respiration rate was maintained at between 35-70 breaths per minute. Two orientation pilot scans were performed in order to establish the position of the animal and identify anatomical landmarks relevant for planning the subsequent scan. The final Tl-weighted Bruker: RARE sequence was performed using the following parameters: repetition time (TR) 1164 ms, echo time (TE) 6 ms, flip angle 90 degrees, number of averages 2, imaging matrix 320×320×40, spatial resolution 0.125×0.125×0.5 mm. Volumes were segmented manually by an observer blinded to the experiment using ITK-SNAP (V3.8.0). A 40× zoom was used to measure visceral and subcutaneous fat volume, and renal onset was the starting point for the fat volume analysis.

HFD-fed mice [2] = type: in vivo, C57BL/6J mice; conditions: 15 μg/kg i.p. twice a week for 16 weeks; for Epididymal fat, absolute organ weight / Epididymal fat, normalized organ weight (organ weight/body weight) / Liver, absolute organ weight / Liver, normalized organ weight (organ weight/body weight): mean ± SEM, n=10
Protocol: as §1

HFD-fed mice [3] = test: Blood metabolic markers in serum (Example 5); type: in vivo, C57BL/6J mice; conditions: for HDL in serum / LDL in serum / Total cholesterol in serum / Triglycerides in serum: 15 μg/kg i.p. twice a week, study week 16
Protocol: as §1
The mice were deeply anesthetized with a terminal dosage of phenobarbital (200-300 mg/kg)24 h after the last study treatment administration and the blood samples were collected from all groups of mice via cardiac puncture using a standardized protocol. Collected blood was allowed to coagulate before centrifugation at 2000×g for 20 min after which the serum was stored at −80° C. until the analysis.

[4] = prolonged use; cited from earlier work
HFD-fed mice [5] = test: Prevention of total body weight gain in high-fat diet mice (Example 2); type: in vivo, C57BL/6J mice
Protocol: Mice were group-housed (4-5 mice per cage) on a proper temperature control of 24-26° C. with a 12 h light/dark cycle with food and water available ad libidum. […] Body weight was measured once a week and the amount of food and water consumed by the animals was measured once a month.

NF-κB = conditions: Penna et al., 2009; cited from earlier work
[6] = Body weight of mice on daily i.p. administration for 6 days (Example 1); type: in vivo, C57BL/6J mice; conditions: for Mean body weight: N=10
Protocol: Two months old male C57BL/6J mice were housed (4-5 mice per cage) with food and water available ad libidum at a temperature control of 24-26° C. and a 12 h light/dark cycle. 3-4 days before the start of the study, the mice were randomized into 3 experimental groups (N=10 per group) using online randomization tool (Graph Pad, USA). Body weights of each animal were measured once a day during the entire study, their health conditions were assessed at the same time. Elocalcitol (100 μg/kg), vitamin D3 (cholecalciferol,100 μg/kg), or vehicle control were administrated intraperitoneally once a day for 6 days.

HFD-fed mice [7] = test: Insulin tolerance test (ITT); type: in vivo, C57BL/6J mice; conditions: insulin 0,5 U/kg i.p.; study week 16; 15 μg/kg i.p. twice a week
Protocol: as §1
Insulin tolerance test (ITT) was performed at the end of the study (study week 16). For ITT, mice were fasted for 6 h and blood glucose was measured from the tail blood using Accu-Chek Performa system glucose meter (Roche, Germany) and the baseline glucose values (0 min) were recorded. The animals were then injected intraperitoneally with insulin (0,5 U/kg; diluted from 100 U/ml (Novorapid, Novo Nordisk A/S) with saline 0.9%) and after […] the blood glucose was measured from tail blood according to this schedule: 15, 30, 60, 90, and 120 min.

HFD-fed mice [8] = test: Glucose tolerance test (GTT); type: in vivo, C57BL/6J mice; conditions: glucose 2 g/kg i.p.; study week 16; 15 μg/kg i.p. twice a week
Protocol: as §1
For GTT, mice were fasted overnight for 10-12 h and blood glucose was measured from the tail blood using Accu-Chek Performa system glucose meter (Roche, Germany) and the baseline glucose values (0 min) were recorded. The animals were then injected intraperitoneally with glucose (2 g/kg) and after glucose injection the blood glucose was measured from tail blood according to this schedule: 15, 30, 60, 90, and 120 min.

[9] = 15 μg/kg i.p. twice a week for 16 weeks
[10] = 100 μg/kg i.p. once a day for 6 days
[11] = admin. day 0 (administration start), 100 μg/kg i.p. once a day
[12] = admin. day 1, 100 μg/kg i.p. once a day
[13] = admin. day 2, 100 μg/kg i.p. once a day
[14] = admin. day 3, 100 μg/kg i.p. once a day
[15] = admin. day 4, 100 μg/kg i.p. once a day
[16] = admin. day 5, 100 μg/kg i.p. once a day
[17] = admin. day 6, 100 μg/kg i.p. once a day
[18] = admin. day −1, before administration start, 100 μg/kg group
[19] = admin. day −2, before administration start, 100 μg/kg group
[20] = admin. day −3, before administration start, 100 μg/kg group
[21] = admin. day −4, before administration start, 100 μg/kg group
[22] = day 7, after administration stopped on day 6
[23] = day 7, after administration stopped on day 6, 100 μg/kg i.p.
[24] = day 8, after administration stopped on day 6
[25] = day 8, after administration stopped on day 6, 100 μg/kg i.p.

With `C=C1/C(=C\C=C2/CCC[C@]3(C)[C@@H]([C@H](C)CCCC(C)(C)O)CC[C@@H]23)C[C@@H](O)C[C@@H]1O` [1,25 (OH)2D3, 1,25-dihydroxycholecalciferol, reference compound] the “Subcutaneous fat level (MRI) compared to the HFD group” value (HFD-fed mice [1]) was “no statistically significant effect”, the “Visceral fat level (MRI) compared to the HFD group” value (HFD-fed mice [1]) was “no statistically significant effect” and the “Epididymal fat, absolute organ weight” value (HFD-fed mice [2]) was 1874 mg. The “Epididymal fat, normalized organ weight (organ weight/body weight)” value (HFD-fed mice [2]) was 49.67 mg/g, the “Liver, absolute organ weight” value (HFD-fed mice [2]) was 1374 mg and the “Liver, normalized organ weight (organ weight/body weight)” value (HFD-fed mice [2]) was 36.03 mg/g. For the same molecule, the “Effect on triglyceride levels” value (HFD-fed mice [3]; [9]) was “lowered the triglyceride levels similar to the ones in the LFD group”, the HDL in serum (HFD-fed mice [3]) was 3.57 mmol/L and the LDL in serum (HFD-fed mice [3]) was 0.82 mmol/L. The “Total cholesterol in serum” value (HFD-fed mice [3]) was 4.44 mmol/L and the Triglycerides in serum (HFD-fed mice [3]) was 0.68 mmol/L.
For `C=C1/C(=C\C=C2/CCC[C@]3(C)C([C@@H](C)C/C=C/C(O)(CC)CC)=CC[C@@H]23)C[C@@H](O)C[C@@H]1F` [elocalcitol], the “Oral dose above which hypercalcemia may ensue” value [4] is given as “higher than 300 μg per day”, the “Study week at which inhibition of the HFD-induced weight gain reaches statistical significance” value (HFD-fed mice [5]; 15 μg/kg i.p. twice a week) is given as 7 study week and the “Lower relative weight gain compared to the vehicle treated HFD mice” value (HFD-fed mice [5]; 15 μg/kg i.p. twice a week for 16 weeks, study week 16) is given as 20%. For the same molecule, the “Subcutaneous fat level (MRI) compared to the HFD group” value (HFD-fed mice [1]) was “significant decrease”, the “Visceral and subcutaneous fat relative to the LFD mice” value (HFD-fed mice [1]) was “reversed the visceral and subcutaneous fat of the HFD mice to the levels observed in the LFD mice” and the “Visceral fat level (MRI) compared to the HFD group” value (HFD-fed mice [1]) was “significant decrease”. The NF-κB inhibition (NF-κB) was “inhibits NF-κB by blocking the nuclear translocation of the p65 subunit”, the “Weights of epididymal fat deposits at the study end, group comparison” value (HFD-fed mice [2]) was “significantly lower than those in the HFD and HFD+vitD groups” and the “Epididymal fat, absolute organ weight” value (HFD-fed mice [2]) was 1312 mg. For the same molecule, the “Epididymal fat, normalized organ weight (organ weight/body weight)” value (HFD-fed mice [2]) was 36.29 mg/g, the “Liver, absolute organ weight” value (HFD-fed mice [2]) was 1412 mg and the “Liver, normalized organ weight (organ weight/body weight)” value (HFD-fed mice [2]) was 39.45 mg/g. For the same molecule, the “Average body weight after administration was stopped on Day 6” value [6, 10] was “returned to normal within two days”, the Mean body weight [6, 11] was 21.50 g and the Weight change % [6, 12] was “+1.4%”. For the same molecule, the Mean body weight [6, 12] was 21.80 g, the Weight change % [6, 13] was −1.4% and the Mean body weight [6, 13] was 21.20 g. The Weight change % [6, 14] was −5.58%, the Mean body weight [6, 14] was 20.30 g and the Weight change % [6, 15] was −10.7%. The Mean body weight [6, 15] was 19.20 g, the Weight change % [6, 16] was −14.42% and the Mean body weight [6, 16] was 18.40 g. The Weight change % [6, 17] was −18.6%, the Mean body weight [6, 17] was 17.50 g and the Mean body weight [6, 18] was 21.60 g. For the same molecule, the Mean body weight [6, 19] was 21.70 g, the Mean body weight [6, 20] was 21.60 g and the Mean body weight [6, 21] was 21.40 g. For the same molecule, the “Drop of average body weight” value ([6]; by treatment Day 4, 100 μg/kg i.p. once a day) was 10.7%, the “Average decrease in body weight” value ([6]; by treatment Day 6, 100 μg/kg i.p. once a day) was 18.6% and the Weight change % [6, 22] was −16.75%. The Mean body weight [6, 23] was 17.90 g, the Weight change % [6, 24] was −1.07% and the Mean body weight [6, 25] was 19.20 g. For the same molecule, the “Increased insulin resistance observed in the HFD (insulin tolerance test)” value (HFD-fed mice [7]) was “reverses the increased insulin resistance observed in the HFD in a statistically significant manner”, the “Glucose tolerance of the HFD-fed mice (glucose AUC analysis)” value (HFD-fed mice [8]) was “statistically significant improvement” and the “Effect on cholesterol (the combined HDL and LDL)” value (HFD-fed mice [3]; [9]) was “statistically significant cholesterol (the combined HDL and LDL) lowering effect”. The “Effect on triglyceride levels” value (HFD-fed mice [3]; [9]) was “lowered the triglyceride levels similar to the ones in the LFD group”, the HDL in serum (HFD-fed mice [3]) was 2.99 mmol/L and the LDL in serum (HFD-fed mice [3]) was 0.73 mmol/L. For the same molecule, the “Total cholesterol in serum” value (HFD-fed mice [3]) was 3.88 mmol/L and the Triglycerides in serum (HFD-fed mice [3]) was 0.87 mmol/L.
In the case of `C=C1CC[C@H](O)C/C1=C/C=C1\CCC[C@]2(C)[C@@H]([C@H](C)CCCC(C)C)CC[C@@H]12` [Vitamin D3, cholecalciferol, reference compound], the Weight loss observed [6, 10] is reported as “No weight loss was observed”, the Mean body weight [6, 11] is reported as 23.80 g and the Weight change % [6, 12] is reported as −0.84%. The Mean body weight [6, 12] was 23.60 g, the Weight change % [6, 13] was “+0.84%” and the Mean body weight [6, 13] was 24.00 g. The Weight change % [6, 14] was 0%, the Mean body weight [6, 14] was 23.80 g and the Weight change % [6, 15] was “+0.84%”. For the same molecule, the Mean body weight [6, 15] was 24.00 g, the Weight change % [6, 16] was “+1.68%” and the Mean body weight [6, 16] was 24.20 g. The Weight change % [6, 17] was “+2.52%”, the Mean body weight [6, 17] was 24.40 g and the Mean body weight [6, 18] was 23.70 g. It also gave a Mean body weight [6, 19] of 23.50 g, a Mean body weight [6, 20] of 23.50 g and a Mean body weight [6, 21] of 23.40 g. For the same molecule, the Weight change % [6, 22] was “+2.94%”, the Mean body weight [6, 23] was 24.50 g and the Weight change % [6, 24] was “+3.78%”. For the same molecule, the Mean body weight [6, 25] was 24.70 g.
